According to patent US20240269136A1, “EGFR INHIBITOR AND PERK ACTIVATOR IN COMBINATION THERAPY AND THEIR USE FOR TREATING CANCER” (Genentech, Inc., priority 2021, published 2024):
Like-named read-outs stand apart in the source and are kept apart here.

System: PC9 cells
Assay: CellTiter-Glo Luminescent Cell Viability Assay, PC9 cells, EGFR inhibitors and PERK activators alone and in combination
Type: cell-based
Experimental: PC9 cells were seeded in replicates in 96-well plates and allowed to attach overnight. The following day cells were treated with the indicated compounds or compound combinations at the indicated concentrations. Cell survival was measured 72 h post-treatment using CellTiter-Glo Luminescent Cell Viability Assay (Promega, G7572). Quantification of the fold decrease in cell viability was determined for single agent activity and for combinations relative to the DMSO-treated control (as shown in Table 1A and 1B). Mean (u) and standard deviation (o) was determined for biological triplicates using Microsoft Excel.

[1] = combination: CCT-020312 2 μM + EGFRi 0.01 μM, PC9, 72 h, relative to DMSO
[2] = combination: CCT-020312 2 μM + EGFRi 0.1 μM, PC9, 72 h, relative to DMSO
[3] = combination: DHBDC 50 μM + EGFRi 0.01 μM, PC9, 72 h, relative to DMSO
[4] = combination: DHBDC 50 μM + EGFRi 0.1 μM, PC9, 72 h, relative to DMSO
[5] = combination: IPA 1 μM + EGFRi 0.01 μM, PC9, 72 h, relative to DMSO
[6] = combination: IPA 1 μM + EGFRi 0.1 μM, PC9, 72 h, relative to DMSO
[7] = combination: MK-28 20 μM + EGFRi 0.01 μM, PC9, 72 h, relative to DMSO
[8] = combination: MK-28 20 μM + EGFRi 0.1 μM, PC9, 72 h, relative to DMSO
[9] = single agent, EGFRi 0.01 μM, PC9, 72 h, relative to DMSO, mean of biological triplicates
[10] = single agent, EGFRi 0.1 μM, PC9, 72 h, relative to DMSO, mean of biological triplicates
[11] = combination: CCT-020312 2 μM + EGFRi 1 μM, PC9, 72 h, relative to DMSO
[12] = combination: DHBDC 50 μM + EGFRi 1 μM, PC9, 72 h, relative to DMSO
[13] = combination: IPA 1 μM + EGFRi 1 μM, PC9, 72 h, relative to DMSO
[14] = combination: MK-28 20 μM + EGFRi 1 μM, PC9, 72 h, relative to DMSO
[15] = single agent, EGFRi 1 μM, PC9, 72 h, relative to DMSO, mean of biological triplicates

Compound | CCT-020312 + Low EGFRi, fold decrease in cell viability (μ) [1] [fold] | CCT-020312 + High EGFRi, fold decrease in cell viability (μ) [2] [fold] | DHBDC + Low EGFRi, fold decrease in cell viability (μ) [3] [fold] | DHBDC + High EGFRi, fold decrease in cell viability (μ) [4] [fold] | IPA + Low EGFRi, fold decrease in cell viability (μ) [5] [fold] | IPA + High EGFRi, fold decrease in cell viability (μ) [6] [fold] | MK-28 + Low EGFRI, fold decrease in cell viability (μ) [7] [fold] | MK-28 + High EGFRi, fold decrease in cell viability (μ) [8] [fold] | Low EGFRi, fold decrease in cell viability (μ) [9] [fold] | High EGFRi, fold decrease in cell viability (μ) [10] [fold] | CCT-020312 + Low EGFRi, fold decrease in cell viability (μ) [2] [fold] | CCT-020312 + High EGFRi, fold decrease in cell viability (μ) [11] [fold] | DHBDC + Low EGFRi, fold decrease in cell viability (μ) [4] [fold] | DHBDC + High EGFRi, fold decrease in cell viability (μ) [12] [fold] | IPA + Low EGFRi, fold decrease in cell viability (μ) [6] [fold] | IPA + High EGFRi, fold decrease in cell viability (μ) [13] [fold] | MK-28 + Low EGFRI, fold decrease in cell viability (μ) [8] [fold] | MK-28 + High EGFRi, fold decrease in cell viability (μ) [14] [fold] | Low EGFRi, fold decrease in cell viability (μ) [10] [fold] | High EGFRi, fold decrease in cell viability (μ) [15] [fold] | also measured
C=CC(=O)N[C@H]1C=C(C)c2c(-c3cnc4ccccc4c3)c3c(N)ncnc3n2C1 (racemic) [TAS-6417, N-[rac-(8S)-4-amino-6-methyl-5-(3-quinolyl)-8,9-dihydropyrimido[5,4-b]indolizin-8-yl]prop-2-enamide] | 505.3 | 1235.6 | 50.9 | 71.8 | 72.3 | 89.5 | 158.3 | 301.6 | 10.5 | 13.6 | – | – | – | – | – | – | – | – | – | – | –
Cc1cc(C(=O)Nc2nc3cccc(Cl)c3n2[C@@H]2CCCCN(C(=O)/C=C/CN(C)C)C2)ccn1 (racemic) [Nazartinib, N-[7-chloro-1-[rac-(3R)-1-[rac-(E)-4-(dimethylamino)but-2-enoyl]azepan-3-yl]benzimidazol-2-yl]-2-methyl-pyridine-4-carboxamide] | – | – | – | – | – | – | – | – | – | – | 255.4 | 1514.1 | 25.8 | 53.6 | 44.0 | 205.5 | 130.5 | 421.8 | 6.3 | 15.0 | –
C=CC(=O)N1CCC(Oc2cc3c(Nc4ccc(Cl)c(Cl)c4F)ncnc3cc2OC)CC1 [Poziotinib, 1-[4-[4-(3,4-dichloro-2-fluoro-anilino)-7-methoxy-quinazolin-6-yl]oxy-1-piperidyl]prop-2-en-1-one] | 716.9 | 1168.4 | 74.1 | 88.4 | 107.6 | 132.4 | 181.5 | 295.2 | 14.3 | 15.4 | – | – | – | – | – | – | – | – | – | – | –
C=CC(=O)Nc1cc(Nc2nccc(-c3cn(C)c4ccccc34)n2)c(OC)cc1N(C)CCN(C)C [Osimertinib, N-[2-[2-(dimethylamino)ethyl-methyl-amino]-4-methoxy-5-[[4-(1-methylindol-3-yl)pyrimidin-2-yl]amino]phenyl]prop-2-enamide] | – | – | – | – | – | – | – | – | – | – | – | – | – | – | – | – | – | – | – | – | CCT-020312 + High EGFRi, fold decrease in cell viability (μ): 836.5 fold; CCT-020312 + Low EGFRi, fold decrease in cell viability (μ): 38.4 fold; DHBDC + High EGFRi, fold decrease in cell viability (μ): 64.2 fold; DHBDC + Low EGFRi, fold decrease in cell viability (μ): 13.6 fold; High EGFRi, fold decrease in cell viability (μ): 12.6 fold; IPA + High EGFRi, fold decrease in cell viability (μ): 67.3 fold; IPA + Low EGFRi, fold decrease in cell viability (μ): 9.9 fold; Low EGFRi, fold decrease in cell viability (μ): 2.1 fold; MK-28 + High EGFRi, fold decrease in cell viability (μ): 220.3 fold; MK-28 + Low EGFRI, fold decrease in cell viability (μ): 72.7 fold
C=CC(=O)Nc1cccc(Nc2nc(Nc3ccc(N4CCN(C(C)=O)CC4)cc3OC)ncc2C(F)(F)F)c1 [Rociletinib, N-[3-[[2-[4-(4-acetylpiperazin-1-yl)-2-methoxy-anilino]-5-(trifluoromethyl)pyrimidin-4-yl]amino]phenyl]prop-2-enamide] | – | – | – | – | – | – | – | – | – | – | 5.1 | 446.1 | 5.3 | 88.0 | 6.4 | 142.3 | 49.2 | 268.9 | 1.3 | 7.0 | –
COc1cc2ncnc(Nc3ccc(F)c(Cl)c3)c2cc1NC(=O)/C=C/CN1CCCCC1 [Dacomitinib, (E)-N-[4-(3-chloro-4-fluoro-anilino)-7-methoxy-quinazolin-6-yl]-4-(1-piperidyl)but-2-enamide] | 731.1 | 1325.3 | 66.5 | 85.2 | 79.2 | 275.2 | 170.8 | 241.8 | 13.6 | 14.5 | – | – | – | – | – | – | – | – | – | – | –
C=CC(=O)Nc1cccc(Oc2nc(Nc3ccc(N4CCN(C)CC4)cc3OC)ncc2Cl)c1 [WZ-4002, N-[3-[5-chloro-2-[2-methoxy-4-(4-methylpiperazin-1-yl)anilino]pyrimidin-4-yl]oxyphenyl]prop-2-enamide] | – | – | – | – | – | – | – | – | – | – | 49.8 | 1482.6 | 13.2 | 52.0 | 10.3 | 106.0 | 120.3 | 422.1 | 2.6 | 13.5 | –
